# In PubChem BioAssay (NCI):
#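 All cell lines were grown in 96-well plates and treated with compound for 48 hours. GI50 is the concentration that inhibits growth by half. Definition used: TGI = concentration required for complete inhibition of growth.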 *1 amine or outer side, *2 acyl side, *3 side chain or, on linkers, in order; H or OH if unused. Where a SMILES comes first, the peptide text is derived from it. Bridges are numbered along the chain shown (N, C = ends). [ ]: non-standard residue; d: D form. Adda = CO[C@@H](Cc1ccccc1)[C@@H](C)/C=C(C)/C=C/[C@H](N[*:1])[C@H](C)C(=O)[*:2]; dAsp(3S-Me) = C[C@H](C(=O)[*:3])[C@@H](N[*:1])C(=O)[*:2]; d(γGlu) = O=C(O)[C@@H](CCC(=O)[*:2])N[*:1]; NMeDha = C=C(NC)C(=O)O
# Legend:
# Assay in all cases: DTP human tumour cell line panel, 48 h
# [1] = tested on: 786-0 renal
# [2] = tested on: A549 NSCLC
# [3] = tested on: ACHN renal
# [4] = tested on: BT-549 breast
# [5] = tested on: CAKI-1 renal
# [6] = tested on: CCRF-CEM leukemia
# [7] = tested on: COLO 205 colon
# [8] = tested on: DU-145 prostate
# [9] = tested on: EKVX NSCLC
# [10] = tested on: HCC-2998 colon
# [11] = tested on: HCT-116 colon
# [12] = tested on: HCT-15 colon
# [13] = tested on: HL-60(TB) leukemia
# [14] = tested on: HOP-62 NSCLC
# [15] = tested on: HOP-92 NSCLC
# [16] = tested on: HS 578T breast
# [17] = tested on: HT29 colon
# [18] = tested on: IGROV1 ovarian
# [19] = tested on: K-562 leukemia
# [20] = tested on: KM12 colon
# [21] = tested on: LOX IMVI melanoma
# [22] = tested on: M14 melanoma
# [23] = tested on: MALME-3M melanoma
# [24] = tested on: MCF7 breast
# [25] = tested on: MDA-MB-231 breast
# [26] = tested on: MDA-MB-435
# [27] = tested on: MOLT-4 leukemia
# [28] = tested on: NCI-H226 lung
# [29] = tested on: NCI-H460 lung
# [30] = tested on: NCI-H522 lung
# [31] = tested on: NCI/ADR-RES ovarian
# [32] = tested on: OVCAR-4 ovarian
# [33] = tested on: OVCAR-5 ovarian
# [34] = tested on: OVCAR-8 ovarian
# [35] = tested on: PC-3 prostate
# [36] = tested on: RPMI-8226 leukemia
# [37] = tested on: RXF 393 renal
# [38] = tested on: SF-268 CNS
# [39] = tested on: SF-295 CNS
# [40] = tested on: SF-539 CNS
# [41] = tested on: SK-MEL-2 melanoma
# [42] = tested on: SK-MEL-28 melanoma
# [43] = tested on: SK-MEL-5 melanoma
# [44] = tested on: SK-OV-3 ovarian
# [45] = tested on: SN12C renal
# [46] = tested on: SNB-19 CNS
# [47] = tested on: SNB-75 CNS
# [48] = tested on: SR leukemia
# [49] = tested on: SW-620 colon
# [50] = tested on: T-47D breast
# [51] = tested on: TK-10 renal
# [52] = tested on: U251 CNS
# [53] = tested on: UACC-257 melanoma
# [54] = tested on: UACC-62 melanoma
# [55] = tested on: UO-31 renal
# [56] = tested on: NCI-H23 lung
# [57] = tested on: OVCAR-3 ovarian
smiles,measurement,setting,value
N#C/C(=C\c1ccccc1)c1nc(-c2cc3ccccc3oc2=O)cs1,TGI,[1],> 100 µM
same,TGI,[2],> 100 µM
same,TGI,[3],> 100 µM
same,TGI,[4],77.1 µM
same,TGI,[5],> 100 µM
same,TGI,[6],> 100 µM
same,TGI,[7],> 100 µM
same,TGI,[8],> 100 µM
same,TGI,[9],> 100 µM
same,TGI,[10],> 100 µM
same,TGI,[11],> 100 µM
same,TGI,[12],> 100 µM
same,TGI,[13],> 100 µM
same,TGI,[14],> 100 µM
same,TGI,[15],> 100 µM
same,TGI,[16],82.1 µM
same,TGI,[17],> 100 µM
same,TGI,[18],> 100 µM
same,TGI,[19],> 100 µM
same,TGI,[20],> 100 µM
same,TGI,[21],> 100 µM
same,TGI,[22],> 100 µM
same,TGI,[23],> 100 µM
same,TGI,[24],> 100 µM
same,TGI,[25],> 100 µM
same,TGI,[26],> 100 µM
same,TGI,[27],> 100 µM
same,TGI,[28],> 100 µM
same,TGI,[29],> 100 µM
same,TGI,[30],> 100 µM
same,TGI,[31],> 100 µM
same,TGI,[32],> 100 µM
same,TGI,[33],> 100 µM
same,TGI,[34],> 100 µM
same,TGI,[35],> 100 µM
same,TGI,[36],> 100 µM
same,TGI,[37],> 100 µM
same,TGI,[38],> 100 µM
same,TGI,[39],> 100 µM
same,TGI,[40],> 100 µM
same,TGI,[41],> 100 µM
same,TGI,[42],> 100 µM
same,TGI,[43],> 100 µM
same,TGI,[44],> 100 µM
same,TGI,[45],> 100 µM
same,TGI,[46],> 100 µM
same,TGI,[47],> 100 µM
same,TGI,[48],> 100 µM
same,TGI,[49],> 100 µM
same,TGI,[50],> 100 µM
same,TGI,[51],> 100 µM
same,TGI,[52],> 100 µM
same,TGI,[53],> 100 µM
same,TGI,[54],> 100 µM
same,TGI,[55],> 100 µM
C=C1C(=O)N[C@H](C)C(=O)N[C@@H](CC(C)C)C(=O)N[C@@H](C(=O)O)[C@H](C)C(=O)N[C@@H](CCCN=C(N)N)C(=O)N[C@@H](/C=C/C(C)=C/[C@H](C)[C@H](Cc2ccccc2)OC)[C@H](C)C(=O)N[C@@H](C(=O)O)CCC(=O)N1C (R[Adda][d(γGlu)][NMeDha][dA]L[dAsp(3S-Me)]-OH; lactam N-7),GI50,[1],> 5 µM
same,TGI,[1],> 5 µM
same,GI50,[2],4.68 µM
same,TGI,[2],> 5 µM
same,GI50,[4],> 5 µM
same,TGI,[4],> 5 µM
same,GI50,[5],> 5 µM
same,TGI,[5],> 5 µM
same,GI50,[7],> 5 µM
same,TGI,[7],> 5 µM
same,GI50,[8],> 5 µM
same,TGI,[8],> 5 µM
same,GI50,[9],> 5 µM
same,TGI,[9],> 5 µM
same,GI50,[10],> 5 µM
same,TGI,[10],> 5 µM
same,GI50,[11],> 5 µM
same,TGI,[11],> 5 µM
same,GI50,[12],> 5 µM
same,TGI,[12],> 5 µM
same,GI50,[13],> 5 µM
same,TGI,[13],> 5 µM
same,GI50,[14],> 5 µM
same,TGI,[14],> 5 µM
same,GI50,[15],> 5 µM
same,TGI,[15],> 5 µM
same,GI50,[16],> 5 µM
same,TGI,[16],> 5 µM
same,GI50,[17],> 5 µM
same,TGI,[17],> 5 µM
same,GI50,[18],0.305 µM
same,TGI,[18],> 5 µM
same,GI50,[19],> 5 µM
same,TGI,[19],> 5 µM
same,GI50,[20],> 5 µM
same,TGI,[20],> 5 µM
same,GI50,[21],> 5 µM
same,TGI,[21],> 5 µM
same,GI50,[22],> 5 µM
same,TGI,[22],> 5 µM
same,GI50,[24],> 5 µM
same,TGI,[24],> 5 µM
same,GI50,[25],> 5 µM
same,TGI,[25],> 5 µM
same,GI50,[26],> 5 µM
same,TGI,[26],> 5 µM
same,GI50,[27],> 5 µM
same,TGI,[27],> 5 µM
same,GI50,[28],> 5 µM
same,TGI,[28],> 5 µM
same,GI50,[56],> 5 µM
same,TGI,[56],> 5 µM
same,GI50,[29],> 5 µM
same,TGI,[29],> 5 µM
same,GI50,[30],4.94 µM
same,TGI,[30],> 5 µM
same,GI50,[31],> 5 µM
same,TGI,[31],> 5 µM
same,GI50,[57],> 5 µM
same,TGI,[57],> 5 µM
same,GI50,[32],> 5 µM
same,TGI,[32],> 5 µM
same,GI50,[33],> 5 µM
same,TGI,[33],> 5 µM
same,GI50,[34],> 5 µM
same,TGI,[34],> 5 µM
same,GI50,[35],> 5 µM
same,TGI,[35],> 5 µM
same,GI50,[36],> 5 µM
same,TGI,[36],> 5 µM
same,GI50,[37],> 5 µM
same,TGI,[37],> 5 µM
same,GI50,[38],> 5 µM
same,TGI,[38],> 5 µM
same,GI50,[39],> 5 µM
same,TGI,[39],> 5 µM
same,GI50,[40],> 5 µM
same,TGI,[40],> 5 µM
same,GI50,[41],> 5 µM
same,TGI,[41],> 5 µM
same,GI50,[42],> 5 µM
same,TGI,[42],> 5 µM
same,GI50,[43],> 5 µM
same,TGI,[43],> 5 µM
same,GI50,[44],> 5 µM
same,TGI,[44],> 5 µM
same,GI50,[45],> 5 µM
same,TGI,[45],> 5 µM
same,GI50,[46],> 5 µM
same,TGI,[46],> 5 µM
same,GI50,[47],> 5 µM
same,TGI,[47],> 5 µM
same,GI50,[48],1.19 µM
same,TGI,[48],> 5 µM
same,GI50,[49],> 5 µM
same,TGI,[49],> 5 µM
same,GI50,[50],> 5 µM
same,TGI,[50],> 5 µM
same,GI50,[51],> 5 µM
same,TGI,[51],> 5 µM
same,GI50,[53],> 5 µM
same,TGI,[53],> 5 µM
same,GI50,[54],> 5 µM
same,TGI,[54],> 5 µM
same,GI50,[55],> 5 µM
same,TGI,[55],> 5 µM
